Measured values taken from US11926578B1, “8-(4-nitroxybenzylideneamino)naphthalene-1,3-disulfonic acid as an antioxidant compound” (KING FAISAL UNIVERSITY, priority 2023, dated 2024).

Assay: DPPH radical scavenging antioxidant test (absorbance at 517 nm)
Format: biochemical
Settings: radical scavenging inhibition of DPPH, 0.2 mL DPPH (0.75 mM), compound 3 μM in ethanol, 30 min in the dark
Protocol: The antioxidant properties of the 8-(4-nitroxybenzylideneamino)naphthalene-1,3-disulfonic acid were studied by adding 0.2 mL DPPH (0.75 mM)) to compound 8-(4-nitroxybenzylideneamino)naphthalene-1,3-disulfonic acid (III) (3 μM) in ethanol. After 30 min of incubation in the dark, the absorbance was read against a blank at 517 nm. Ascorbic acid (vitamin C) was used as standard antioxidants (positive control). A blank sample was prepared by 0.2 ml of DPPH in 3 ml ethanol. A negative control sample was run using ethanol instead of the sample. The radical scavenging inhibition was calculated using the following equation: […]

Work on `O=C1O[C@H]([C@@H](O)CO)C(O)=C1O` [vit c, Ascorbic acid] yielded an Inhibition of 74%.
